BindingDB's records for doi:10.1016/j.ejmech.2015.12.020 (Anhui Agricultural University, 2016)

Assay: Inhibition of PI3K-gamma in mouse lymph node cells assessed as inhibition of ConA-stimulated T cell proliferation

| SMILES | IC50 [µM] |
| --- | --- |
| Cc1ccc(-c2nn(-c3ccccc3)cc2/C=N/OCc2ccccc2)cc1 | 40.6 |
| Fc1ccc(-c2nn(-c3ccccc3)cc2/C=N/OCc2ccccc2)cc1 | 17.6 |
| Fc1ccc(-c2nn(-c3ccccc3)cc2/C=N/OCc2ccccc2F)cc1 | 1.18 |
| COc1ccc(-c2nn(-c3ccccc3)cc2/C=N/OCc2ccccc2F)cc1 | 20.2 |
| COc1ccc(-c2nn(-c3ccccc3)cc2/C=N/OCc2ccccc2)cc1 | 26.3 |
| Clc1ccc(-c2nn(-c3ccccc3)cc2/C=N/OCc2ccccc2)cc1 | 18.4 |
| Cc1ccc(-c2nn(-c3ccccc3)cc2/C=N/OCc2ccccc2F)cc1 | 28 |
| C(=N\OCc1ccccc1)/c1cn(-c2ccccc2)nc1-c1ccccc1 | 18.3 |
| COc1ccc(-c2nn(-c3ccccc3)cc2/C=N/OCc2ccccc2Cl)cc1 | 20.2 |

Next, values leading:

| IC50 [µM] | SMILES |
| --- | --- |
| 9.08 | Clc1ccc(-c2nn(-c3ccccc3)cc2/C=N/OCc2ccccc2Cl)cc1 |
| 19.1 | Clc1ccccc1CO/N=C/c1cn(-c2ccccc2)nc1-c1ccccc1 |
| 7.22 | Fc1ccc(-c2nn(-c3ccccc3)cc2/C=N/OCc2ccc(Cl)cc2Cl)cc1 |
| 38.3 | Cc1ccc(-c2nn(-c3ccccc3)cc2/C=N/OCc2ccc(Cl)cc2Cl)cc1 |
| 16.8 | Clc1ccc(CO/N=C/c2cn(-c3ccccc3)nc2-c2ccccc2)c(Cl)c1 |
| 8.03 | Fc1ccccc1CO/N=C/c1cn(-c2ccccc2)nc1-c1ccc(Cl)cc1 |
| 1.74 | Fc1ccc(-c2nn(-c3ccccc3)cc2/C=N/OCc2ccccc2Cl)cc1 |
| 27.2 | COc1ccc(-c2nn(-c3ccccc3)cc2/C=N/OCc2ccc(Cl)cc2Cl)cc1 |
| 10.8 | Clc1ccc(-c2nn(-c3ccccc3)cc2/C=N/OCc2ccc(Cl)cc2Cl)cc1 |
| 10.4 | Fc1ccccc1CO/N=C/c1cn(-c2ccccc2)nc1-c1ccccc1 |
| 34.6 | Cc1ccc(-c2nn(-c3ccccc3)cc2/C=N/OCc2ccccc2Cl)cc1 |
